{
  "source": "patent US20130109680A1",
  "about": "“METHODS AND COMPOSITIONS FOR AMELIORATING THIAZIDE INDUCED […]” (University of Florida Research Foundation, Inc., priority 2007, published 2013)",
  "format_in_all_cases": "in vivo, Sprague Dawley rats",
  "key": {"[1]": {"test_system": "rats on 60% fructose diet", "test": "Tail cuff systolic blood pressure measurement in fructose-fed rats", "conditions": "for systolic blood pressure (SBP): conscious rats, mean±SD", "procedure": "(§1) Male Sprague Dawley rats (150-200 g, Charles River Inc., Wilmington, Mass.) were placed on a standard natural ingredient diet (catalog #7912, Harlan, Wis.) for a five day run-in period with collection of basal blood and urine. Rats were then divided into 5 groups with similar body weight and baseline blood chemistry (n=8 each group).\n(§2) Group 3 (F+HCTZ): 60% fructose diet plus hydrochlorothiazide (HCTZ, Sigma-Aldrich, St. Louis, Mo.) 10 mg/kg/day dissolved in drinking water\n(§3) We monitored serum K^+ and increased the concentration of KCL at week 5 (1.5% KCL), week 15 (1.75% KCL) and week 17 (2% KCL) to maintain normal k^+ level in serum through the whole study.\n(§4) Group 5 (F+HCTZ+Allopurinol): 60% fructose diet plus the same dose of HCTZ and allopurinol 150 mg/L dissolved in drinking water\nSystolic blood pressure (SBP) measurement was performed in conscious rats with the use of a tail-cuff sphygmomanometer (Visitech BP2000, Visitech Systems, Apex, N.C.) at weeks 4 and 16. After three time periods of preconditioning, rats were placed in prewarmed chambers (37° C.) for 10-15 min, the pressure and pulse were measured by an automatic tail-cuff inflater and a built-in transducer. The mean of three stable BP readings was used."}, "[2]": {"test_system": "rats on 60% fructose diet", "test": "Measurement of urinary nitric oxide (nitrate/nitrite)", "conditions": "FIG. 5", "from_the_text": "as §1\n(§5) Rats were weighed weekly and housed separately in metabolic cages for overnight collection of urine (over 18 hrs) with free access to water and no food on weeks 4, 14 and 20. Four hour fasting serum was also collected from the tail vein within the same week of urine collection. At the end of week 20, rats were sacrificed.\nUrine was determined NO by using the nitrate/nitrite colorimetric assay kit (Cayman Chemical Company, MI). The kit measures NO reaction products, total nitrate and nitrite concentrations with a modified two-step Griess reaction."}, "[3]": {"test_system": "rats on 60% fructose diet", "test": "Serum insulin and Quantitative Insulin Sensitivity Check Index (QUICKI)", "conditions": "for QUICKI / insulin sensitivity (in words): week 14, FIG. 3", "procedure": "as §1\nFasting serum glucose and insulin were obtained at week 14 and used to calculate the QUICKI value. Serum insulin was determined by using the rat insulin ELISA kit (Crystal Chem, Chicago, Ill.) which can detect serum insulin in the range of 156-10,000 pg/ml and has the 3.5% intra-assay and 6.3% inter-assay precision. QUICKI is a mathematical model based on log-transformed fasting plasma glucose and insulin values by equal 1/(log [glucose]+log [insulin]). QUICKI predicts insulin sensitivity with lower values representing more insulin resistance."}, "[4]": {"test_system": "rats on 60% fructose diet", "test": "Biochemical measurements of serum and urine in fructose-fed rats", "conditions": "for serum uric acid (change in words): FIG. 2A; for serum uric acid (change in words) / serum triglycerides (change in words): weeks 4, 14, 20; for serum triglycerides (change in words): FIG. 2D", "procedure": "as §1, §2, §3, §4, §5\nSerum and urine K^+ concentrations were determined with the atomic absorption spectrophotometer (Perkin-Elmer 306). Routine chemistries (including serum glucose, cholesterol, triglycerides, blood urea nitrogen (BUN), sodium, chloride, bicarbonate (HCO3^−) and magnesium (Mg^++); serum and urine creatinine (Cr), uric acid and urine protein concentration) were measured using an autoanalyzer (VetAce, Alfa Wassermann, Inc., West Caldwell, N.J.)."}, "[5]": {"test_system": "rats on 60% fructose diet", "test": "Insulin tolerance test (ITT)", "conditions": "week 18, 0.75 U/kg insulin i.p., FIG. 4", "procedure": "as §1\nAt week 18, the ITT was performed on animals fasted for 16 hours by administering 0.75 U/kg recombinant human insulin (Novolin; Novo Nordisk, Princeton, N.J.) via intraperitoneal injection. Blood glucose was determined on tail blood via hand-held blood glucose monitor (OneTouch, Johnson & Johnson) at 5 points; before insulin injection, and at 15, 30, 45 and 60 minutes after insulin injection."}},
  "note": "Values joined by “and” are separate entries in the source; they are usually repeats but may differ in a detail not shown here. Identical values can stand only once. Marks after values point to notes of the source that are not given here.",
  "data": [
    {"smiles": "NS(=O)(=O)c1cc2c(cc1Cl)NCNS2(=O)=O", "note": "[F+HCTZ, hydrochlorothiazide]", "values": [
      {"measurement": "effect on systolic blood pressure (in words)", "setting": "[1]; FIG. 1, weeks 4 and 16", "result": "reduced the systolic blood pressure"},
      {"measurement": "systolic blood pressure (SBP)", "setting": "[1]; week 4, tail cuff", "result": "129±4.6", "unit": "mmHg"},
      {"measurement": "systolic blood pressure (SBP)", "setting": "[1]; week 16, tail cuff", "result": "136±3.7", "unit": "mmHg"},
      {"measurement": "urine nitrate/nitrite excretion (in words)", "setting": "[2]", "result": "even lower nitrite excretion"},
      {"measurement": "urine nitrate/nitrite excretion (in words)", "setting": "[2]; listed as Hydrochlorothiazide", "result": "more reduction of urine nitrate and nitrite"},
      {"measurement": "QUICKI / insulin sensitivity (in words)", "setting": "[3]; listed as HCTZ", "result": "significantly lower"},
      {"measurement": "QUICKI / insulin sensitivity (in words)", "setting": "[3]; listed as hydrochlorothiazide", "result": "significant lower insulin sensitivity"},
      {"measurement": "serum insulin concentration", "setting": "[3]; week 14, rat insulin ELISA, mean±SD", "result": "3449 ± 1200", "unit": "pg/mL"},
      {"measurement": "serum uric acid (change in words)", "setting": "[4]", "result": "greater hyperuricemia"},
      {"measurement": "serum uric acid (change in words)", "setting": "[4]; listed as Hydrochlorothiazide", "result": "more hyperuricemia"},
      {"measurement": "serum glucose (change in words)", "setting": "[4]; FIG. 2B, weeks 14 and 20", "result": "hyperglycemia"},
      {"measurement": "serum cholesterol (change in words)", "setting": "[4]; FIG. 2C", "result": "numerical higher"},
      {"measurement": "serum triglycerides (change in words)", "setting": "[4]", "result": "higher in the F+HCTZ group but did not reach statistical significance"},
      {"measurement": "serum triglycerides (change in words)", "setting": "[4]; listed as hydrochlorothiazide", "result": "numerical higher"},
      {"measurement": "Uric acid clearance", "setting": "[4]; Table 1, mean±SD", "result": "0.08 ± 0.03 ^& ml/min"},
      {"measurement": "Urine protein/Cr", "setting": "[4]; Table 1, mean±SD", "result": "2.53 ± 2.3"},
      {"measurement": "Urine uric acid", "setting": "[4]; Table 1, mean±SD", "result": "2.93 ± 1.0 ^& mg/day"},
      {"measurement": "Cr", "setting": "[4]; Table 1, serum, week 20, mean±SD", "result": "0.46 ± 0.11", "unit": "mg/dL"},
      {"measurement": "BUN", "setting": "[4]; rat, in vivo", "result": "26.6 ± 14 *^, & mg/dL"},
      {"measurement": "Serum K^+", "setting": "[4]; rat, in vivo", "result": "4.0 ± 0.1 *^, &, # mEq/L"},
      {"measurement": "Serum Mg^++", "setting": "[4]; rat, in vivo", "result": "1.15 ± 0.1*^, & mEq/L"},
      {"measurement": "serum HCO3^−", "setting": "[4]; rat, in vivo", "result": "24.7±1.1", "unit": "mEq/L"},
      {"measurement": "serum K^+ (in words)", "setting": "[4]; rat, in vivo", "result": "significantly lower"},
      {"measurement": "serum uric acid", "setting": "[4]; week 14 (implied by sentence), mean±SD", "result": "2.69 ± 0.47", "unit": "mg/dL"},
      {"measurement": "serum glucose", "setting": "[4]; week 14, 4 h fasting serum, mean±SD", "result": "176 ± 13.3", "unit": "mg/dL"},
      {"measurement": "serum triglycerides", "setting": "[4]; week 14, mean±SD", "result": "492 ± 154", "unit": "mg/dL"},
      {"measurement": "serum glucose", "setting": "[4]; week 20, 4 h fasting serum, mean±SD", "result": "186 ± 21.9 mg/dL and 186 ± 22 mg/dL"},
      {"measurement": "serum glucose", "setting": "[4]; week 20, mean±SD", "result": "186 ± 22", "unit": "mg/dL"},
      {"measurement": "serum triglycerides", "setting": "[4]; week 20, mean±SD", "result": "489 ± 178", "unit": "mg/dL"},
      {"measurement": "serum uric acid", "setting": "[4]; week 20, mean±SD", "result": "2.76 ± 0.59", "unit": "mg/dL"},
      {"measurement": "blood glucose response to intraperitoneal insulin in ITT (in words)", "setting": "[5]", "result": "maintained elevated serum glucose in response to insulin"},
      {"measurement": "blood glucose response to intraperitoneal insulin in ITT (in words)", "setting": "[5]; listed as hydrochlorothiazide", "result": "no change of blood glucose"}
    ]}
  ]
}
